For this test, the system named is Vesicular stomatitis virus. Put plainly: Antiviral activity against Vesicular stomatitis virus Indiana infected in A549 cells assessed as inhibition of viral adsorption at early stage of replication treated for 1 hr during viral infection followed by replacement with fresh medium and measured after 48 hrs by MTT assay. In kind it is functional, organism-based.

The source made the active and inactive calls. No cut-off for these calls is given here.

On to `C=C(C)[C@@H]1CC[C@]2(COC(=O)/C=C(\C)C(=O)N3CCOCC3)CC[C@]3(C)[C@H](CC[C@@H]4[C@@]5(C)CC[C@H](O)C(C)(C)[C@@H]5CC[C@]43C)[C@@H]12`, for which the outcome was inactive.

Values taken from ChEMBL document CHEMBL4831514, “Novel betulin dicarboxylic acid ester derivatives as potent antiviral agents: Design, synthesis, biological evaluation, structure-activity relationship and in-silico study” (Eur J Med Chem, 2021).
